Assay results from ChEMBL document CHEMBL1201862, “PubChem BioAssay data set” (2004).
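Growth conditions: 96-well plates. Treatment: test compound, 48 hours, 5 concentrations. Analysis: linear interpolation between bracketing concentrations; unreached endpoints set to highest concentration. GI50 = concentration required for 50% inhibition of growth.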 The source made the active and inactive calls. Rule as the data show it: active = GI50 up to about 1.1 µM and inactive = higher.

Experiments:
Experiment in all cases: NCI anticancer screen, dose series, 48 h
786-0 = tested on: 786-0
A498 = tested on: A498
A549 = tested on: A549
ACHN = tested on: ACHN
CAKI-1 = tested on: CAKI-1
CCRF-CEM = tested on: CCRF-CEM
COLO 205 = tested on: COLO 205
DLD-1 = tested on: DLD-1
DMS-114 = tested on: DMS-114
DMS-273 = tested on: DMS-273
EKVX = tested on: EKVX
HCT-116 = tested on: HCT-116
HCT-15 = tested on: HCT-15
HL-60 = tested on: HL-60
HOP-18 = tested on: HOP-18
HOP-62 = tested on: HOP-62
HOP-92 = tested on: HOP-92
HT-29 = tested on: HT-29
IGROV-1 = tested on: IGROV-1
K562 = tested on: K562
KM-20L2 = tested on: KM-20L2
KM12 = tested on: KM12
LOX IMVI = tested on: LOX IMVI
LXFL 529 = tested on: LXFL 529
M14 = tested on: M14
M19-MEL = tested on: M19-MEL
MOLT-4 = tested on: MOLT-4
Malme-3M = tested on: Malme-3M
NCI-H226 = tested on: NCI-H226
NCI-H23 = tested on: NCI-H23
NCI-H460 = tested on: NCI-H460
NCI-H522 = tested on: NCI-H522
OVCAR-3 = tested on: OVCAR-3
OVCAR-4 = tested on: OVCAR-4
OVCAR-5 = tested on: OVCAR-5
OVCAR-8 = tested on: OVCAR-8
RPMI-8226 = tested on: RPMI-8226
RXF 393 = tested on: RXF 393
RXF 631 = tested on: RXF 631
SF-268 = tested on: SF-268
SF-295 = tested on: SF-295
SF-539 = tested on: SF-539
SK-MEL-28 = tested on: SK-MEL-28
SK-MEL-2 = tested on: SK-MEL-2
SK-MEL-5 = tested on: SK-MEL-5
SK-OV-3 = tested on: SK-OV-3
SN12C = tested on: SN12C
SNB-19 = tested on: SNB-19
SNB-75 = tested on: SNB-75
SNB-78 = tested on: SNB-78
SR = tested on: SR
SW-620 = tested on: SW-620
TK-10 = tested on: TK-10
U-251 = tested on: U-251
UACC-257 = tested on: UACC-257
UACC-62 = tested on: UACC-62
UO-31 = tested on: UO-31
XF498 = tested on: XF498
HCC 2998 = tested on: HCC 2998

OCn1nc2c(C3OCCO3)cc3ccccc3n2c1=S
GI50 (786-0): > 100 µM (inactive) | GI50 (A498): > 100 µM (inactive) | GI50 (A549): > 100 µM (inactive) | GI50 (ACHN): > 100 µM (inactive) | GI50 (CAKI-1): > 100 µM (inactive) | GI50 (CCRF-CEM): > 100 µM (inactive) | GI50 (COLO 205): > 100 µM (inactive) | GI50 (DLD-1): > 100 µM (inactive) | GI50 (DMS-114): > 100 µM (inactive) | GI50 (DMS-273): > 100 µM (inactive) | GI50 (EKVX): > 100 µM (inactive) | GI50 (HCT-116): > 100 µM (inactive) | GI50 (HCT-15): > 100 µM | GI50 (HL-60): > 100 µM (inactive) | GI50 (HOP-18): > 100 µM (inactive) | GI50 (HOP-62): > 100 µM (inactive) | GI50 (HOP-92): > 100 µM (inactive) | GI50 (HT-29): > 100 µM (inactive) | GI50 (IGROV-1): > 100 µM (inactive) | GI50 (K562): > 100 µM (inactive) | GI50 (KM-20L2): > 100 µM (inactive) | GI50 (KM12): > 100 µM (inactive) | GI50 (LOX IMVI): > 100 µM (inactive) | GI50 (LXFL 529): > 100 µM (inactive) | GI50 (M14): > 100 µM (inactive) | GI50 (M19-MEL): > 100 µM (inactive) | GI50 (MOLT-4): > 100 µM (inactive) | GI50 (Malme-3M): > 100 µM (inactive) | GI50 (NCI-H226): > 100 µM (inactive) | GI50 (NCI-H23): > 100 µM (inactive) | GI50 (NCI-H460): > 100 µM (inactive) | GI50 (NCI-H522): > 100 µM (inactive) | GI50 (OVCAR-3): > 100 µM (inactive) | GI50 (OVCAR-4): > 100 µM (inactive) | GI50 (OVCAR-5): > 100 µM (inactive) | GI50 (OVCAR-8): > 100 µM (inactive) | GI50 (RPMI-8226): > 100 µM (inactive) | GI50 (RXF 393): > 100 µM (inactive) | GI50 (RXF 631): > 100 µM (inactive) | GI50 (SF-268): > 100 µM (inactive) | GI50 (SF-295): > 100 µM (inactive) | GI50 (SF-539): > 100 µM (inactive) | GI50 (SK-MEL-28): > 100 µM (inactive) | GI50 (SK-MEL-2): > 100 µM (inactive) | GI50 (SK-MEL-5): > 100 µM (inactive) | GI50 (SK-OV-3): > 100 µM (inactive) | GI50 (SN12C): > 100 µM (inactive) | GI50 (SNB-19): > 100 µM (inactive) | GI50 (SNB-75): > 100 µM (inactive) | GI50 (SNB-78): > 100 µM (inactive) | GI50 (SR): > 100 µM (inactive) | GI50 (SW-620): > 100 µM (inactive) | GI50 (TK-10): > 100 µM (inactive) | GI50 (U-251): > 100 µM (inactive) | GI50 (UACC-257): > 100 µM (inactive) | GI50 (UACC-62): > 100 µM (inactive) | GI50 (UO-31): > 100 µM (inactive) | GI50 (XF498): > 100 µM (inactive)

C=C1C(=O)OC2/C=C(\C)C(O)/C=C\C(C)(O)CC(OC(=O)/C(C)=C/C)C12 (configuration not stated)
GI50 (786-0): 20.8 µM (inactive) | GI50 (A498): > 100 µM (inactive) | GI50 (A549): > 100 µM (inactive) | GI50 (ACHN): 22.4 µM (inactive) | GI50 (CAKI-1): 23.6 µM (inactive) | GI50 (CCRF-CEM): > 32.5 µM (inactive) | GI50 (COLO 205): 15.3 µM (inactive) | GI50 (DLD-1): 13.2 µM (inactive) | GI50 (DMS-114): > 48 µM (inactive) | GI50 (DMS-273): 16.7 µM (inactive) | GI50 (EKVX): 30.1 µM (inactive) | GI50 (HCC 2998): > 100 µM (inactive) | GI50 (HCT-116): 16.3 µM (inactive) | GI50 (HCT-15): 17.2 µM | GI50 (HL-60): 7.91 µM (inactive) | GI50 (HOP-18): > 74.8 µM (inactive) | GI50 (HOP-62): > 100 µM (inactive) | GI50 (HOP-92): 29.2 µM (inactive) | GI50 (HT-29): 33.1 µM (inactive) | GI50 (IGROV-1): > 100 µM (inactive) | GI50 (K562): 9.64 µM (inactive) | GI50 (KM-20L2): 13.2 µM (inactive) | GI50 (KM12): 40.6 µM (inactive) | GI50 (LOX IMVI): 16.2 µM (inactive) | GI50 (LXFL 529): 15.3 µM (inactive) | GI50 (M14): 17.3 µM (inactive) | GI50 (M19-MEL): 17.5 µM (inactive) | GI50 (MOLT-4): 4.29 µM (inactive) | GI50 (Malme-3M): 21.4 µM (inactive) | GI50 (NCI-H226): > 100 µM (inactive) | GI50 (NCI-H23): 39.8 µM (inactive) | GI50 (NCI-H460): > 61 µM (inactive) | GI50 (NCI-H522): 12.8 µM (inactive) | GI50 (OVCAR-3): 9.93 µM (inactive) | GI50 (OVCAR-4): 44.6 µM (inactive) | GI50 (OVCAR-5): > 100 µM (inactive) | GI50 (OVCAR-8): 22.1 µM (inactive) | GI50 (RPMI-8226): > 39.5 µM (inactive) | GI50 (RXF 393): 18 µM (inactive) | GI50 (RXF 631): 38.2 µM (inactive) | GI50 (SF-268): 76.9 µM (inactive) | GI50 (SF-295): > 100 µM (inactive) | GI50 (SF-539): 14.1 µM (inactive) | GI50 (SK-MEL-28): 18.3 µM (inactive) | GI50 (SK-MEL-2): 19.7 µM (inactive) | GI50 (SK-MEL-5): 51.3 µM (inactive) | GI50 (SK-OV-3): > 100 µM (inactive) | GI50 (SN12C): 22 µM (inactive) | GI50 (SNB-19): > 39.6 µM (inactive) | GI50 (SNB-75): > 100 µM (inactive) | GI50 (SNB-78): 34.2 µM (inactive) | GI50 (SR): 11.7 µM (inactive) | GI50 (SW-620): 17.3 µM (inactive) | GI50 (TK-10): > 48.4 µM (inactive) | GI50 (U-251): > 67.8 µM (inactive) | GI50 (UACC-257): 27.2 µM (inactive) | GI50 (UACC-62): 17.1 µM (inactive) | GI50 (UO-31): > 70.1 µM (inactive) | GI50 (XF498): 29.9 µM (inactive)
